Patent publication US20250144067A1, “PERSONALIZED STARVATION THERAPY FOR CANCER” (Faeth Therapeutics, Inc., priority 2021, published 2025)
Counter-ions that a name gives are not always drawn.

Each molecule was assayed on NCI-H292 lung cancer cells (assay: FDA drug screening, complete media vs cholesterol-free media without statin (TABLE 1)). Conditions: not given.
Format: cell-based, human

Structure (SMILES) | Cholesterol-free | Complete | Difference
CN(C)CCCN1c2ccccc2Sc2ccc(C(F)(F)F)cc21 [Triflupromazine (hydrochloride)] | 0.9938 | 0.8066 | −0.19
Cl.NC(CO)(CO)CO [Trometamol (hydrochloride)] | 0.9218 | 0.6947 | −0.23

Same assay, conditions: Complete minus Cholesterol-free; >0 enhanced anti-cancer activity, about 0 neutral, <0 antagonist

Structure (SMILES) | Difference
CCCCCCCC(=O)OCC(COC(=O)CCCCCCC)OC(=O)CCCCCCC [Tricaprilin] | 0.03
O=C(Nc1ccc(Cl)cc1)Nc1ccc(Cl)c(Cl)c1 [Triclocarban] | −0.05
C[C@]12CC[C@H]3[C@@H](CC[C@@]45O[C@@H]4C(O)=C(C#N)C[C@]35C)[C@@H]1CC[C@@H]2O [Trilostane] | −0.23
COc1ccc(CN2CCNCC2)c(OC)c1OC [Trimetazidine (dihydrochloride)] | −0.30
CN1C(=O)OC(C)(C)C1=O [Trimethadione] | −0.23
COc1cc(NCc2ccc3nc(N)nc(N)c3c2C)cc(OC)c1OC [Trimetrexate] | −0.04
CN(C)CCOCC(=O)NC12CC3CC(CC(C3)C1)C2 [Tromantadine (hydrochloride)] | −0.20
CN1[C@@H]2CC[C@H]1C[C@@H](OC(=O)c1c[nH]c3ccccc13)C2 [Tropisetron (Hydrochloride)] | −0.30

Same assay, conditions: Complete minus Cholesterol-free; […]

Structure (SMILES) | Difference
Oc1cc(Cl)ccc1Oc1ccc(Cl)cc1Cl [Triclosan] | −0.91
CC(C)[C@]12O[C@H]1[C@@H]1O[C@]13[C@]1(O[C@H]1C[C@H]1C4=C(CC[C@@]13C)C(=O)OC4)[C@@H]2O [Triptolide] | −0.01
CC(C)[C@]12O[C@H]1[C@@H]1O[C@@]13[C@@]1(C)CCC4=C(COC4=O)[C@@H]1C[C@@H]1O[C@@]13C2=O [Triptonide] | −0.01

Same assay, conditions: Complete minus Cholesterol-free; greater than 0 enhanced anti-cancer activity, about 0 neutral, below 0 antagonist

Structure (SMILES) | Difference
O=c1[nH]c(=O)n([C@H]2C[C@H](O)[C@@H](CO)O2)cc1C(F)(F)F [Trifluridine] | −0.14

Same assay, conditions: NCI-H292 cells in cholesterol-free media without statin

Structure (SMILES) | Cholesterol-free
Oc1cc(Cl)ccc1Oc1ccc(Cl)cc1Cl [Triclosan] | 1.986

Same assay, conditions: NCI-H292 cells in complete media

Structure (SMILES) | Complete
Oc1cc(Cl)ccc1Oc1ccc(Cl)cc1Cl [Triclosan] | 1.081

Same assay, conditions: NCI-H292 cells, FDA drug library screen, cholesterol-free media without statin

Structure (SMILES) | Cholesterol-free
O=c1[nH]c(=O)n([C@H]2C[C@H](O)[C@@H](CO)O2)cc1C(F)(F)F [Trifluridine] | 0.2875

Same assay, conditions: NCI-H292 cells, FDA drug library screen, complete media

Structure (SMILES) | Complete
O=c1[nH]c(=O)n([C@H]2C[C@H](O)[C@@H](CO)O2)cc1C(F)(F)F [Trifluridine] | 0.145

Same assay, conditions: NCI-H292 cells, cholesterol-free media without statin

Structure (SMILES) | Cholesterol-free
C[C@]12CC[C@H]3[C@@H](CC[C@@]45O[C@@H]4C(O)=C(C#N)C[C@]35C)[C@@H]1CC[C@@H]2O [Trilostane] | 1.238
COc1ccc(CN2CCNCC2)c(OC)c1OC [Trimetazidine (dihydrochloride)] | 1.134
CN1C(=O)OC(C)(C)C1=O [Trimethadione] | 1.085
CN(C)CCOCC(=O)NC12CC3CC(CC(C3)C1)C2 [Tromantadine (hydrochloride)] | 0.9414
CN1[C@@H]2CC[C@H]1C[C@@H](OC(=O)c1c[nH]c3ccccc13)C2 [Tropisetron (Hydrochloride)] | 1.166

Same assay, conditions: NCI-H292 cells, cholesterol-free media without statin, FDA drug library screen

Structure (SMILES) | Cholesterol-free
CCCCCCCC(=O)OCC(COC(=O)CCCCCCC)OC(=O)CCCCCCC [Tricaprilin] | 0.9476
O=C(Nc1ccc(Cl)cc1)Nc1ccc(Cl)c(Cl)c1 [Triclocarban] | 0.8072
COc1cc(NCc2ccc3nc(N)nc(N)c3c2C)cc(OC)c1OC [Trimetrexate] | 0.1317
CC(C)[C@]12O[C@H]1[C@@H]1O[C@]13[C@]1(O[C@H]1C[C@H]1C4=C(CC[C@@]13C)C(=O)OC4)[C@@H]2O [Triptolide] | 0.04113
CC(C)[C@]12O[C@H]1[C@@H]1O[C@@]13[C@@]1(C)CCC4=C(COC4=O)[C@@H]1C[C@@H]1O[C@@]13C2=O [Triptonide] | 0.01808

Same assay, conditions: NCI-H292 cells, complete media

Structure (SMILES) | Complete
C[C@]12CC[C@H]3[C@@H](CC[C@@]45O[C@@H]4C(O)=C(C#N)C[C@]35C)[C@@H]1CC[C@@H]2O [Trilostane] | 1.003
COc1ccc(CN2CCNCC2)c(OC)c1OC [Trimetazidine (dihydrochloride)] | 0.836
CN1C(=O)OC(C)(C)C1=O [Trimethadione] | 0.857
CN(C)CCOCC(=O)NC12CC3CC(CC(C3)C1)C2 [Tromantadine (hydrochloride)] | 0.7414
CN1[C@@H]2CC[C@H]1C[C@@H](OC(=O)c1c[nH]c3ccccc13)C2 [Tropisetron (Hydrochloride)] | 0.8628

Same assay, conditions: NCI-H292 cells, complete media, FDA drug library screen

Structure (SMILES) | Complete
CCCCCCCC(=O)OCC(COC(=O)CCCCCCC)OC(=O)CCCCCCC [Tricaprilin] | 0.9746
O=C(Nc1ccc(Cl)cc1)Nc1ccc(Cl)c(Cl)c1 [Triclocarban] | 0.7602
COc1cc(NCc2ccc3nc(N)nc(N)c3c2C)cc(OC)c1OC [Trimetrexate] | 0.09583
CC(C)[C@]12O[C@H]1[C@@H]1O[C@]13[C@]1(O[C@H]1C[C@H]1C4=C(CC[C@@]13C)C(=O)OC4)[C@@H]2O [Triptolide] | 0.03049
CC(C)[C@]12O[C@H]1[C@@H]1O[C@@]13[C@@]1(C)CCC4=C(COC4=O)[C@@H]1C[C@@H]1O[C@@]13C2=O [Triptonide] | 0.005807

Each molecule was assayed on NCI-H292 lung cancer cells (assay: FDA drug screening, complete media vs cholesterol-free media with simvastatin (TABLE 2)). Conditions: not given.
Format: cell-based, human

Structure (SMILES) | Cholesterol-free media + simvastatin (0.04 μM) | Complete Media | Difference
CN(C)CCCN1c2ccccc2Sc2ccc(C(F)(F)F)cc21 [Triflupromazine (hydrochloride)] | 0.02542 | 1.475 | 1.45
Cl.NC(CO)(CO)CO [Trometamol (hydrochloride)] | 1.673 | 1.379 | −0.29

Same assay, conditions: NCI-H292 cells, FDA drug library screen, cholesterol-free media with simvastatin 0.04 μM

Structure (SMILES) | Cholesterol-free media + simvastatin (0.04 μM)
CCCCCCCC(=O)OCC(COC(=O)CCCCCCC)OC(=O)CCCCCCC [Tricaprilin] | 1.072
COc1cc(NCc2ccc3nc(N)nc(N)c3c2C)cc(OC)c1OC [Trimetrexate] | 0.2201
CN1[C@@H]2CC[C@H]1C[C@@H](OC(=O)c1c[nH]c3ccccc13)C2 [Tropisetron (Hydrochloride)] | 1.118

Same assay, conditions: NCI-H292 cells, FDA drug library screen, complete media

Structure (SMILES) | Complete Media
CCCCCCCC(=O)OCC(COC(=O)CCCCCCC)OC(=O)CCCCCCC [Tricaprilin] | 0.9486
COc1cc(NCc2ccc3nc(N)nc(N)c3c2C)cc(OC)c1OC [Trimetrexate] | 0.1203
CN1[C@@H]2CC[C@H]1C[C@@H](OC(=O)c1c[nH]c3ccccc13)C2 [Tropisetron (Hydrochloride)] | 0.9866

Same assay, conditions: NCI-H292 cells, cholesterol-free media with simvastatin 0.04 μM; FDA drug library screen (TABLE 2)

Structure (SMILES) | Cholesterol-free media + simvastatin (0.04 μM)
O=C(Nc1ccc(Cl)cc1)Nc1ccc(Cl)c(Cl)c1 [Triclocarban] | 1.029
O=c1[nH]c(=O)n([C@H]2C[C@H](O)[C@@H](CO)O2)cc1C(F)(F)F [Trifluridine] | 0.1119
CC(C)[C@]12O[C@H]1[C@@H]1O[C@]13[C@]1(O[C@H]1C[C@H]1C4=C(CC[C@@]13C)C(=O)OC4)[C@@H]2O [Triptolide] | 0.007136
CC(C)[C@]12O[C@H]1[C@@H]1O[C@@]13[C@@]1(C)CCC4=C(COC4=O)[C@@H]1C[C@@H]1O[C@@]13C2=O [Triptonide] | 0.02446

Same assay, conditions: NCI-H292 cells, cholesterol-free media with simvastatin 0.04 μM; […]

Structure (SMILES) | Cholesterol-free media + simvastatin (0.04 μM)
Oc1cc(Cl)ccc1Oc1ccc(Cl)cc1Cl [Triclosan] | 1.015

Same assay, conditions: NCI-H292 cells, cholesterol-free media with simvastatin 0.04 μM; cell growth value in FDA drug screen

Structure (SMILES) | Cholesterol-free media + simvastatin (0.04 μM)
CN1C(=O)OC(C)(C)C1=O [Trimethadione] | 1.017

Same assay, conditions: NCI-H292 cells, complete media; FDA drug library screen (TABLE 2)

Structure (SMILES) | Complete Media
O=C(Nc1ccc(Cl)cc1)Nc1ccc(Cl)c(Cl)c1 [Triclocarban] | 0.9601
O=c1[nH]c(=O)n([C@H]2C[C@H](O)[C@@H](CO)O2)cc1C(F)(F)F [Trifluridine] | 0.1066
CC(C)[C@]12O[C@H]1[C@@H]1O[C@]13[C@]1(O[C@H]1C[C@H]1C4=C(CC[C@@]13C)C(=O)OC4)[C@@H]2O [Triptolide] | −0.02177
CC(C)[C@]12O[C@H]1[C@@H]1O[C@@]13[C@@]1(C)CCC4=C(COC4=O)[C@@H]1C[C@@H]1O[C@@]13C2=O [Triptonide] | 0.02522

Same assay, conditions: NCI-H292 cells, complete media; […]

Structure (SMILES) | Complete Media
Oc1cc(Cl)ccc1Oc1ccc(Cl)cc1Cl [Triclosan] | 1.093

Same assay, conditions: NCI-H292 cells, complete media; cell growth value in FDA drug screen

Structure (SMILES) | Complete Media
CN1C(=O)OC(C)(C)C1=O [Trimethadione] | 1.08

Same assay, conditions: NCI-H292 cells, drug in cholesterol-free media with simvastatin 0.04 μM

Structure (SMILES) | Cholesterol-free media + simvastatin (0.04 μM)
C[C@]12CC[C@H]3[C@@H](CC[C@@]45O[C@@H]4C(O)=C(C#N)C[C@]35C)[C@@H]1CC[C@@H]2O [Trilostane] | 1.758
COc1ccc(CN2CCNCC2)c(OC)c1OC [Trimetazidine (dihydrochloride)] | 1.296
CN(C)CCOCC(=O)NC12CC3CC(CC(C3)C1)C2 [Tromantadine (hydrochloride)] | 1.251

Same assay, conditions: NCI-H292 cells, drug in complete media

Structure (SMILES) | Complete Media
C[C@]12CC[C@H]3[C@@H](CC[C@@]45O[C@@H]4C(O)=C(C#N)C[C@]35C)[C@@H]1CC[C@@H]2O [Trilostane] | 1.505
COc1ccc(CN2CCNCC2)c(OC)c1OC [Trimetazidine (dihydrochloride)] | 1.112
CN(C)CCOCC(=O)NC12CC3CC(CC(C3)C1)C2 [Tromantadine (hydrochloride)] | 1.005

Same assay, conditions: complete media minus cholesterol-free media + simvastatin (0.04 μM); >0 enhanced anti-cancer activity, about 0 neutral, <0 antagonist

Structure (SMILES) | Difference
O=C(Nc1ccc(Cl)cc1)Nc1ccc(Cl)c(Cl)c1 [Triclocarban] | −0.07
O=c1[nH]c(=O)n([C@H]2C[C@H](O)[C@@H](CO)O2)cc1C(F)(F)F [Trifluridine] | −0.01

Same assay, conditions: complete media minus cholesterol-free media + simvastatin (0.04 μM); […]

Structure (SMILES) | Difference
CC(C)[C@]12O[C@H]1[C@@H]1O[C@]13[C@]1(O[C@H]1C[C@H]1C4=C(CC[C@@]13C)C(=O)OC4)[C@@H]2O [Triptolide] | −0.03
CC(C)[C@]12O[C@H]1[C@@H]1O[C@@]13[C@@]1(C)CCC4=C(COC4=O)[C@@H]1C[C@@H]1O[C@@]13C2=O [Triptonide] | 0.00

Same assay, conditions: complete media minus cholesterol-free media + simvastatin; >0 enhanced anti-cancer activity, about 0 neutral, <0 antagonist

Structure (SMILES) | Difference
CN1C(=O)OC(C)(C)C1=O [Trimethadione] | 0.06

Same assay, conditions: complete media minus cholesterol-free media + simvastatin; […]

Structure (SMILES) | Difference
Oc1cc(Cl)ccc1Oc1ccc(Cl)cc1Cl [Triclosan] | 0.08

Same assay, conditions: complete media vs cholesterol-free media + simvastatin (0.04 μM); >0 enhanced anti-cancer activity, about 0 neutral, <0 antagonist

Structure (SMILES) | Difference
CCCCCCCC(=O)OCC(COC(=O)CCCCCCC)OC(=O)CCCCCCC [Tricaprilin] | −0.12
C[C@]12CC[C@H]3[C@@H](CC[C@@]45O[C@@H]4C(O)=C(C#N)C[C@]35C)[C@@H]1CC[C@@H]2O [Trilostane] | −0.25
COc1ccc(CN2CCNCC2)c(OC)c1OC [Trimetazidine (dihydrochloride)] | −0.18
COc1cc(NCc2ccc3nc(N)nc(N)c3c2C)cc(OC)c1OC [Trimetrexate] | −0.10
CN(C)CCOCC(=O)NC12CC3CC(CC(C3)C1)C2 [Tromantadine (hydrochloride)] | −0.25
CN1[C@@H]2CC[C@H]1C[C@@H](OC(=O)c1c[nH]c3ccccc13)C2 [Tropisetron (Hydrochloride)] | −0.13
